{"source": "patent US8455491B2", "about": "“6-cycloamino-3-(pyridazin-4-yl)imidazo[1,2-b]pyridazine and derivatives and pharmaceutical compositions comprising the same” (Sanofi, priority 2007, dated 2013)", "key": {"[1]": {"target": "T1, casein kinase 1 epsilon (CK1 epsilon) (Homo sapiens, UniProt P49674)", "T1 construct": "Invitrogen Corporation (named as alternative)", "T1 sequence (P49674 whole entry)": "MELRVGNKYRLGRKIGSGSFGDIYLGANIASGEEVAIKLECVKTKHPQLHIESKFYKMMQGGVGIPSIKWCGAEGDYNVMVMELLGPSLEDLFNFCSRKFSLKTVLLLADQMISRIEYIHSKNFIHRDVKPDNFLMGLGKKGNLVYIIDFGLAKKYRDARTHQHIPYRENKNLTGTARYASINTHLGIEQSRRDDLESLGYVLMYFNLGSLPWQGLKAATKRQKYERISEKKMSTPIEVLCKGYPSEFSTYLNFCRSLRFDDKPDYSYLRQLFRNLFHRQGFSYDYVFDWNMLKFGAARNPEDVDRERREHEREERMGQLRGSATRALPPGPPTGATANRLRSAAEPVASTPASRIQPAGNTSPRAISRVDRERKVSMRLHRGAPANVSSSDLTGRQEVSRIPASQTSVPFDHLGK", "assay": "Filter-plate assay of ATP-33P, inhibition of casein phosphorylation by CK1 epsilon", "assay_type": "biochemical", "settings": "casein substrate, ATP 10 μM, 2 hours at ambient temperature", "experimental": "The capacity of the compounds of the invention to inhibit the phosphorylation of casein by casein kinase 1 epsilon and delta may be evaluated according to the procedure described in US 2005/0131012.\nFilter-Plate Assay of ATP-^33P for the Screening of CK1 Epsilon Inhibitors:\nThe effect of the compounds on inhibition of the phosphorylation of casein by the enzyme casein kinase 1 epsilon (CK1 epsilon) is measured, using a casein assay with filtration of ATP-^33P in vitro.\nCasein kinase 1 epsilon (0.58 mg/ml) is obtained via fermentation and purification processes performed according to methods that are well known to those skilled in the art, or may also be obtained from Invitrogen Corporation™ (human CK1 epsilon).\nThe compounds are tested at five different concentrations so as to generate IC50 values, i.e. the concentration at which a compound is capable of inhibiting the enzymatic activity by 50%, or alternatively the percentage of inhibition at a concentration of 10 micromolar.\n“U”-bottomed Falcon plates are prepared by placing 5 μL of solutions of the compounds according to the invention at concentrations of 10, 1, 0.1, 0.01 or 0.001 μM in various wells. The solutions of the compounds according to the invention at these various concentrations are prepared by diluting in a test buffer (50 mM Tris, pH 7.5, […], 2 mM DTT and 1 mM EGTA) a stock solution in DMSO at a concentration of 10 mM. Next, 5 μL of dephosphorylated casein are added to a final concentration of 0.2 μg/μL, 20 μl of CK1 epsilon to a final concentration of 3 ng/μl, and 20 μl of ATP-^33P to a final concentration of 0.02 μCi/μl mixed with cold ATP (10 μM final—approximately 2×10^6 CPM per well). The final total test volume per well is equal to 50 μl.\nThe “U”-bottomed Falcon® test plate mentioned above is vortexed, and then incubated at ambient temperature for 2 hours. After 2 hours, the reaction is stopped by adding an ice-cold solution of 65 μl of ATP (2 mM) prepared in test buffer.\n100 μl of the reaction mixture are then transferred from the “U”-bottomed Falcon® plate into Millipore® MAPH filter plates, preimpregnated with 25 μl of ice-cold 100% TCA. […]\nThe plates are left to dry overnight at ambient temperature. […] The radiation emitted by each well is then measured for 2 minutes in a Packard® Topcount NXT scintillation counter, in which the values of CPM/well are measured.\nThe percentage inhibition of the capacity of the enzyme to phosphorylate the substrate (casein) is determined for each concentration of compound tested. These inhibition data expressed as percentages are used to calculate the IC50 value for each compound compared with the controls.\nThe kinetic studies determined the KM value for ATP as being 21 μM in this test system."}, "human CK1 delta": {"target": "T2, human CK1 delta (Homo sapiens, UniProt P48730)", "T2 construct": "purchased Invitrogen Corporation PV3665", "T2 sequence (P48730 whole entry)": "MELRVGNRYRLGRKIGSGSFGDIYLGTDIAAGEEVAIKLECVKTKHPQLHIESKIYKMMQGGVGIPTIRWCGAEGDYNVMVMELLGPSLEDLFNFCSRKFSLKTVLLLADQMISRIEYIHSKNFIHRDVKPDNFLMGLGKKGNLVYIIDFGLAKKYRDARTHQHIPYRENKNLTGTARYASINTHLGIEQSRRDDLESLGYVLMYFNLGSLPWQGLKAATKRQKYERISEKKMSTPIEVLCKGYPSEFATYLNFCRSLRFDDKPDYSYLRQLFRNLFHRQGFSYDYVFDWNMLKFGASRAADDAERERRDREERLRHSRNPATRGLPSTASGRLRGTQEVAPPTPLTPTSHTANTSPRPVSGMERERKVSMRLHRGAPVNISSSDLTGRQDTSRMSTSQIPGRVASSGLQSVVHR", "assay": "FRET fluorescence test (Z'Lyte kinase assay Kit), CK1 delta", "assay_type": "biochemical", "settings": "peptide substrate SER/THR 11 2 μM, ATP 4 times the KM", "description": "The capacity of the compounds of the invention to inhibit the phosphorylation of casein by casein kinase 1 epsilon and delta may be evaluated using a FRET (“Fluorescence Resonance Energy Transfer) fluorescence test with the aid of the “Z′Lyte™ kinase assay Kit” (reference PV3670; Invitrogen Corporation™) according to the manufacturer's instructions.\nThe casein kinases 1 used are obtained from Invitrogen Corporation (human CK1 epsilon PV3500 and human CK1 delta PV3665).\nA peptide substrate, labeled at both ends with a fluorophore donor group (coumarin) and a fluorophore acceptor group ([…]) constituting a FRET system is phosphorylated in the presence of ATP by casein kinase 1 epsilon or delta in the presence increasing concentrations of compounds of the invention. The mixture is treated with a site-specific protease that specifically cleaves the peptide substrate to form two fluorescent fragments having a large fluorescence emission ratio.\nThe fluorescence observed is thus related to the capacity of the products of the invention to inhibit the phosphorylation of the peptide substrate by casein kinase 1 epsilon or casein kinase 1 delta.\nThe compounds of the invention are dissolved at different concentrations starting with a 10 mM stock solution in DMSO diluted in a buffer containing 50 mM HEPS, pH 7.5, 1 m MEGTA, 0.01% Brij-35, 10 mM MgCl for casein kinase 1 epsilon and supplemented with Trizma Base (50 mM), pH 8.0, and NaN3 (0.01% final) for casein kinase 1 delta.\nThe phosphorylation of the peptide substrate SER/THR 11 obtained from Invitrogen Corporation™ is performed at a final concentration of 2 μM. The ATP concentration is 4 times the KM, this value being 2 μM for casein kinase 1 epsilon and 4 μM for casein kinase 1 delta.\nThe emitted fluorescence is measured at wavelengths of 445 and 520 nm (excitation at 400 nm)."}}, "data": [{"smiles": "CN1CCN(c2ccc3nc(-c4ccc(F)cc4)c(-c4ccnnc4)n3n2)CC1", "note": "[compound 5, 2-(4-fluorophenyl)-6-(4-methylpiperazin-1-yl)-3-pyridazin-4-yl-imidazo[1,2-b]pyridazine]", "values": [{"measurement": "IC50", "setting": "[1]", "value": "16 to 33", "unit": "nM"}, {"measurement": "IC50", "setting": "human CK1 delta", "value": "41 to 56", "unit": "nM"}]}]}
